System: 843782-103-R-J1-PDC complex spheroid viability
Test: Anticancer human tumor 843782-103-R-J1-PDC patient-derived lung adenocarcinoma cell line growth inhibition [RAS]
Details: for IC50: curve of first compound; for viability, T/C: stronger effect = lower value
Summary of the method: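 Agents were tested in combination matrices in half-log decrements from a top concentration at or near clinical Cmax (10 microM if undetermined). Targets were multi-cell spheroids of tumour lines plus HUVEC and MSC stromal cells.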

[1] = second compound 0.0316 µM, first compound 0.0316 µM
[2] = second compound 0.0316 µM, first compound 0.1 µM
[3] = second compound 0.0316 µM, first compound 0.316 µM
[4] = second compound 0.0316 µM, first compound 1 µM
[5] = second compound 0.1 µM, first compound 0.0316 µM
[6] = second compound 0.1 µM, first compound 0.1 µM
[7] = second compound 0.1 µM, first compound 0.316 µM
[8] = second compound 0.1 µM, first compound 1 µM
[9] = second compound 0.316 µM, first compound 0.0316 µM
[10] = second compound 0.316 µM, first compound 0.1 µM
[11] = second compound 0.316 µM, first compound 0.316 µM
[12] = second compound 0.316 µM, first compound 1 µM
[13] = second compound 1 µM, first compound 0.0316 µM
[14] = second compound 1 µM, first compound 0.1 µM
[15] = second compound 1 µM, first compound 0.316 µM
[16] = second compound 1 µM, first compound 1 µM
[17] = second compound 3.16 µM, first compound 0.0316 µM
[18] = second compound 3.16 µM, first compound 0.1 µM
[19] = second compound 3.16 µM, first compound 0.316 µM
[20] = second compound 3.16 µM, first compound 1 µM
[21] = second compound 10 µM, first compound 0.0316 µM
[22] = second compound 10 µM, first compound 0.1 µM
[23] = second compound 10 µM, first compound 0.316 µM
[24] = second compound 10 µM, first compound 1 µM
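Also: viability read after seven days of compound exposure.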

O=C(c1ccc(F)c(F)c1Nc1ccc(I)cc1F)N1CC(O)([C@@H]2CCCCN2)C1 + C#Cc1c(F)ccc2cc(O)cc(-c3ncc4c(N5CC6CCC(C5)N6)nc(OCC56CCCN5CC(F)C6)nc4c3F)c12
IC50 (second compound 0.0316 µM): 287 nM | IC50 (second compound 0.1 µM): 231 nM | IC50 (second compound 0.316 µM): 230 nM | IC50 (second compound 1 µM): 129 nM | IC50 (second compound 3.16 µM): 35.2 nM | IC50 (second compound 10 µM): 6.34 nM | viability, T/C (second compound 0.0316 µM, first compound 0.00316 µM): 107% | viability, T/C (second compound 0.0316 µM, first compound 0.01 µM): 94.2% | viability, T/C [1]: 92.5% | viability, T/C [2]: 84.1% | viability, T/C [3]: 45.9% | viability, T/C [4]: 20% | viability, T/C (second compound 0.1 µM, first compound 0.00316 µM): 107% | viability, T/C (second compound 0.1 µM, first compound 0.01 µM): 104% | viability, T/C [5]: 89.5% | viability, T/C [6]: 74% | viability, T/C [7]: 39.4% | viability, T/C [8]: 27.7% | viability, T/C (second compound 0.316 µM, first compound 0.00316 µM): 102% | viability, T/C (second compound 0.316 µM, first compound 0.01 µM): 90.7% | viability, T/C [9]: 89.1% | viability, T/C [10]: 75.5% | viability, T/C [11]: 39.6% | viability, T/C [12]: 22.3% | viability, T/C (second compound 1 µM, first compound 0.00316 µM): 96% | viability, T/C (second compound 1 µM, first compound 0.01 µM): 95.4% | viability, T/C [13]: 81.8% | viability, T/C [14]: 56.6% | viability, T/C [15]: 28.9% | viability, T/C [16]: 19.7% | viability, T/C (second compound 3.16 µM, first compound 0.00316 µM): 81.5% | viability, T/C (second compound 3.16 µM, first compound 0.01 µM): 65.7% | viability, T/C [17]: 53.8% | viability, T/C [18]: 34.9% | viability, T/C [19]: 26.4% | viability, T/C [20]: 18.4% | viability, T/C (second compound 10 µM, first compound 0.00316 µM): 56.3% | viability, T/C (second compound 10 µM, first compound 0.01 µM): 46.5% | viability, T/C [21]: 34.5% | viability, T/C [22]: 26.9% | viability, T/C [23]: 19.2% | viability, T/C [24]: 14%

CC(Nc1ccc2c(c1)OCCn1cc(N3C(=O)OCC3C(F)F)nc1-2)C(N)=O (centres undefined) + C#Cc1c(F)ccc2cc(O)cc(-c3ncc4c(N5CC6CCC(C5)N6)nc(OCC56CCCN5CC(F)C6)nc4c3F)c12
IC50 (second compound 0.0316 µM): 457 nM | IC50 (second compound 0.1 µM): 375 nM | IC50 (second compound 0.316 µM): 297 nM | IC50 (second compound 1 µM): 174 nM | IC50 (second compound 3.16 µM): 57.7 nM | IC50 (second compound 10 µM): < 31.6 nM | viability, T/C [1]: 96.3% | viability, T/C [2]: 73.7% | viability, T/C [3]: 59.3% | viability, T/C [4]: 35.5% | viability, T/C (second compound 0.0316 µM, first compound 3.16 µM): 24.5% | viability, T/C (second compound 0.0316 µM, first compound 10 µM): 16.1% | viability, T/C [5]: 96.4% | viability, T/C [6]: 76.6% | viability, T/C [7]: 50% | viability, T/C [8]: 36.3% | viability, T/C (second compound 0.1 µM, first compound 3.16 µM): 22.8% | viability, T/C (second compound 0.1 µM, first compound 10 µM): 15% | viability, T/C [9]: 91.2% | viability, T/C [10]: 72.9% | viability, T/C [11]: 46.2% | viability, T/C [12]: 32.6% | viability, T/C (second compound 0.316 µM, first compound 3.16 µM): 23.2% | viability, T/C (second compound 0.316 µM, first compound 10 µM): 15% | viability, T/C [13]: 89.9% | viability, T/C [14]: 59.5% | viability, T/C [15]: 39.6% | viability, T/C [16]: 25.1% | viability, T/C (second compound 1 µM, first compound 3.16 µM): 20% | viability, T/C (second compound 1 µM, first compound 10 µM): 10.9% | viability, T/C [17]: 63% | viability, T/C [18]: 36.7% | viability, T/C [19]: 26.6% | viability, T/C [20]: 18.2% | viability, T/C (second compound 3.16 µM, first compound 3.16 µM): 12.2% | viability, T/C (second compound 3.16 µM, first compound 10 µM): 8.25% | viability, T/C [21]: 41.2% | viability, T/C [22]: 22.2% | viability, T/C [23]: 21.3% | viability, T/C [24]: 15.4% | viability, T/C (second compound 10 µM, first compound 3.16 µM): 8.8% | viability, T/C (second compound 10 µM, first compound 10 µM): 3.28%
